Assay results reported in patent US11708348B2, “Protease inhibitors for treatment of coronavirus infections” (The Scripps Research Institute, priority 2021, dated 2023).
Where two headings read alike, the source gives them in different places.

Tested on: SARS-CoV-2 strain USA-WA1/2020
Experiment: microbe, parasite or virus in culture
Format: cell-based
Details: Severe acute respiratory syndrome coronavirus 2, HeLa-ACE2, 24 h, HeLa-ACE2 cells, SARS-CoV-2 infection, 24 h, read-out: EC50, uM (Hela)

Row | SMILES | EC50 (class symbols) [µM] | EC50 [µM] | other results
1 | Cc1cccc(C)c1NC(=O)C(=O)N[C@@H](CC(C)C)C(=O)N[C@@H](C[C@@H]1CCNC1=O)C(=O)COC(F)(F)F [Compound 152, N1-(2,6-dimethylphenyl)-N2-((S)-4-methyl-1-oxo-1-(((S)-3-oxo-1-((S)-2-oxopyrrolidin-3-yl)-4-(trifluoromethoxy)butan-2-yl)amino)pentan-2-yl)oxalamide] | < 0.05 | – | –
2 | O=C1NCC[C@H]1C[C@H](NC(=O)[C@@H]1[C@H]2CCC[C@H]2CN1C(=O)c1noc2ccccc12)C(=O)COC(F)(F)F [Compound 557, (1S,3aR,6aS)-2-(benzo[d]isoxazole-3-carbonyl)-N-((S)-3-oxo-1-((S)-2-oxopyrrolidin-3-yl)-4-(trifluoromethoxy)butan-2-yl)octahydro-cyclopenta[c]pyrrole-1-carboxamide] | – | < 0.05 | –
3 | O=C1NCC[C@H]1C[C@H](NC(=O)[C@@H]1CC2(CC2)CN1C(=O)[C@@H]1CCCO1)C(=O)COC(F)(F)F [Compound 679, (S)-N-((S)-3-oxo-1-((S)-2-oxopyrrolidin-3-yl)-4-(trifluoromethoxy)butan-2-yl)-5-((S)-tetrahydrofuran-2-carbonyl)-5-azaspiro[2.4]heptane-6-carboxamide] | – | 0.2 to 0.5 | –
4 | CC(C)(C)[C@H](NC(=O)NC1CC1)C(=O)N1C[C@H]2[C@@H]([C@H]1C(=O)N[C@@H](C[C@@H]1CCNC1=O)C(=O)COC(F)(F)F)C2(C)C [Compound 634, (1R,2S,5S)-3-((S)-2-(3-cyclopropylureido)-3,3-dimethylbutanoyl)-6,6-dimethyl-N-((S)-3-oxo-1-((S)-2-oxopyrrolidin-3-yl)-4-(trifluoromethoxy)butan-2-yl)-3-azabicyclo[3.1.0]hexane-2-carboxamide] | – | – | EC50 (given as a bound, not a class symbol): > 1 µM
5 | CC(C)(C)[C@@H](O)C(=O)N1C[C@H]2[C@@H]([C@H]1C(=O)N[C@@H](C[C@@H]1CCNC1=O)C(=O)COC(F)(F)F)C2(C)C [Compound 343, (1R,2S,5S)-3-((R)-2-hydroxy-3,3-dimethylbutanoyl)-6,6-dimethyl-N-((S)-3-oxo-1-((S)-2-oxopyrrolidin-3-yl)-4-(trifluoromethoxy)butan-2-yl)-3-azabicyclo[3.1.0]-hexane-2-carboxamide] | 0.05 to 0.2 | – | –
6 | CC(C)C[C@H](NC(=O)C(=O)NC(C)(C)C(F)F)C(=O)N[C@@H](C[C@@H]1CCNC1=O)C(=O)COC(F)(F)F [Compound 246, N1-(1,1-difluoro-2-methylpropan-2-yl)-N2-((S)-4-methyl-1-oxo-1-(((S)-3-oxo-1-((S)-2-oxopyrrolidin-3-yl)-4-(trifluoromethoxy)butan-2-yl)amino)pentan-2-yl)oxalamide] | < 0.05 | – | –
7 | CC(C)C[C@H](NC(=O)C(=O)Nc1ccccc1F)C(=O)N[C@@H](C[C@@H]1CCNC1=O)C(=O)COc1c(F)ccc(F)c1F [Compound 132, N1-(2-fluorophenyl)-N2-((S)-4-methyl-1-oxo-1-(((S)-3-oxo-1-((S)-2-oxopyrrolidin-3-yl)-4-(2,3,6-trifluorophenoxy)butan-2-yl)amino)pentan-2-yl)oxalamide] | 0.05 to 0.2 | – | –
8 | CC(C)C[C@H](NC(=O)c1nc2ccccc2[nH]1)C(=O)N[C@@H](C[C@@H]1CCNC1=O)C(=O)COC(F)(F)F [Compound 156, N-((S)-4-methyl-1-oxo-1-(((S)-3-oxo-1-((S)-2-oxopyrrolidin-3-yl)-4-(trifluoromethoxy)butan-2-yl)amino)pentan-2-yl)-1H-benzo[d]imidazole-2-carboxamide] | < 0.05 | – | –
9 | O=C(Nc1ccccc1Cl)C(=O)N1CC2(CC2)C[C@H]1C(=O)N[C@@H](C[C@@H]1CCNC1=O)C(=O)COC(F)(F)F [Compound 606, (S)-5-(2-((2-chlorophenyl)amino)-2-oxoacetyl)-N-((S)-3-oxo-1-((S)-2-oxopyrrolidin-3-yl)-4-(trifluoromethoxy)butan-2-yl)-5-azaspiro[2.4]heptane-6-carboxamide] | – | < 0.05 | –
10 | Cn1ccc(C(=O)N2C[C@@H]3CCC[C@@H]3[C@H]2C(=O)N[C@@H](C[C@@H]2CCNC2=O)C(=O)COC(F)(F)F)n1 [Compound 533, (1S,3aR,6aS)-2-(1-methyl-1H-pyrazole-3-carbonyl)-N-((S)-3-oxo-1-((S)-2-oxopyrrolidin-3-yl)-4-(trifluoromethoxy)butan-2-yl)octahydrocyclo-penta[c]pyrrole-1-carboxamide] | – | 0.5 to 1 | –
11 | CC(C)(C)CC(O)C(=O)N1C[C@@H]2CCC[C@@H]2[C@H]1C(=O)N[C@@H](C[C@@H]1CCNC1=O)C(=O)COC(F)(F)F (stereo partly drawn) [Compound 348, (1S,3aR,6aS)-2-(2-hydroxy-4,4-dimethylpentanoyl)-N-((S)-3-oxo-1-((S)-2-oxopyrrolidin-3-yl)-4-(trifluoromethoxy)butan-2-yl)octahydrocyclo-penta[c]pyrrole-1-carboxamide] | < 0.05 | – | –
12 | COc1ccccc1[C@@H](O)C(=O)N1C[C@H]2[C@@H]([C@H]1C(=O)N[C@@H](C[C@@H]1CCNC1=O)C(=O)COC(F)(F)F)C2(C)C [Compound 382, (1R,2S,5S)-3-((R)-2-hydroxy-2-(2-methoxyphenyl)acetyl)-6,6-dimethyl-N-((S)-3-oxo-1-((S)-2-oxopyrrolidin-3-yl)-4-(trifluoromethoxy)butan-2-yl)-3-azabicyclo-[3.1.0]hexane-2-carboxamide] | < 0.05 | – | –
13 | CC(C)(C)NC(=O)C(=O)N[C@@H](CC1CC1)C(=O)N[C@@H](C[C@@H]1CCNC1=O)C(=O)COC(F)(F)F [Compound 503, N1-(tert-butyl)-N2-((S)-3-cyclopropyl-1-oxo-1-(((S)-3-oxo-1-((S)-2-oxopyrrolidin-3-yl)-4-(trifluoromethoxy)butan-2-yl)amino)propan-2-yl)oxalamide] | – | < 0.05 | –
14 | COc1ccccc1-c1cnc(C(=O)N[C@@H](CC(C)C)C(=O)N[C@@H](C[C@@H]2CCNC2=O)C(=O)COC(F)(F)F)[nH]1 [Compound 210, 5-(2-methoxyphenyl)-N-((S)-4-methyl-1-oxo-1-(((S)-3-oxo-1-((S)-2-oxopyrrolidin-3-yl)-4-(trifluoromethoxy)butan-2-yl)amino)pentan-2-yl)-1H-imidazole-2-carboxamide] | < 0.05 | – | –
15 | CC(C)C[C@H](NC(=O)C(=O)Nc1cccc(F)c1)C(=O)N[C@@H](C[C@@H]1CCNC1=O)C(=O)COc1c(F)c(F)cc(F)c1F [Compound 43, N1-(3-fluorophenyl)-N2-((S)-4-methyl-1-oxo-1-(((S)-3-oxo-1-((S)-2-oxopyrrolidin-3-yl)-4-(2,3,5,6-tetrafluorophenoxy)butan-2-yl)amino)pentan-2-yl)oxalamide] | 0.05 to 0.2 | – | –
16 | O=C(NC1CC(F)(F)C1)C(=O)N1CC2(CC2)C[C@H]1C(=O)N[C@@H](C[C@@H]1CCNC1=O)C(=O)COC(F)(F)F [Compound 588, (S)-5-(2-((3,3-difluorocyclobutyl)-amino)-2-oxoacetyl)-N-((S)-3-oxo-1-((S)-2-oxopyrrolidin-3-yl)-4-(trifluoromethoxy)butan-2-yl)-5-azaspiro[2.4]-heptane-6-carboxamide] | – | 0.2 to 0.5 | –
17 | CC1(C)[C@@H]2[C@@H](C(=O)N[C@@H](C[C@@H]3CCNC3=O)C(=O)COC(F)(F)F)N(C(=O)[C@H](O)c3ccccc3)C[C@@H]21 [Compound 413, (1R,2S,5S)-3-((R)-2-hydroxy-2-phenylacetyl)-6,6-dimethyl-N-((S)-3-oxo-1-((S)-2-oxopyrrolidin-3-yl)-4-(trifluoromethoxy)butan-2-yl)-3-azabicyclo[3.1.0]-hexane-2-carboxamide] | – | < 0.05 | –
18 | O=C1NCC[C@H]1C[C@H](NC(=O)[C@@H]1CC2(CC2)CN1C(=O)C1CCOCC1)C(=O)COC(F)(F)F [Compound 682, (S)-N-((S)-3-oxo-1-((S)-2-oxopyrrolidin-3-yl)-4-(trifluoromethoxy)butan-2-yl)-5-(tetrahydro-2H-pyran-4-carbonyl)-5-azaspiro[2.4]heptane-6-carboxamide] | – | 0.2 to 0.5 | –
19 | O=C(NC1CS(=O)(=O)C1)C(=O)N[C@@H](CC1CC1)C(=O)N[C@@H](C[C@@H]1CCNC1=O)C(=O)COC(F)(F)F [Compound 234, N1-((S)-3-cyclopropyl-1-oxo-1-(((S)-3-oxo-1-((S)-2-oxopyrrolidin-3-yl)-4-(trifluoromethoxy)butan-2-yl)amino)propan-2-yl)-N2-(l,1-dioxidothietan-3-yl)oxalamide] | – | – | EC50 (bound printed in cell): > 1 µM
20 | CC(C)(F)C[C@H](NC(=O)c1cc2cc(F)ccc2[nH]1)C(=O)N[C@@H](C[C@@H]1CCNC1=O)C(=O)COc1c(F)c(F)cc(F)c1F [Compound 18, 5-fluoro-N-((S)-4-fluoro-4-methyl-1-oxo-1-(((S)-3-oxo-1-((S)-2-oxopyrrolidin-3-yl)-4-(2,3,5,6-tetrafluorophenoxy)butan-2-yl)amino)pentan-2-yl)-1H-indole-2-carboxamide] | 0.5 to 1 | – | –
21 | CCc1cccc(CC)c1NC(=O)C(=O)N[C@@H](CC(C)C)C(=O)N[C@@H](C[C@@H]1CCNC1=O)C(=O)COC(F)(F)F [Compound 167, N1-(2,6-diethylphenyl)-N2-((S)-4-methyl-1-oxo-1-(((S)-3-oxo-1-((S)-2-oxopyrrolidin-3-yl)-4-(trifluoromethoxy)butan-2-yl)amino)pentan-2-yl)oxalamide] | < 0.05 | – | –
22 | CC(C)[C@H](O)C(=O)N1CC2(CC2)C[C@H]1C(=O)N[C@@H](C[C@@H]1CCNC1=O)C(=O)COC(F)(F)F [Compound 358, (S)-5-((S)-2-hydroxy-3-methylbutanoyl)-N-((S)-3-oxo-1-((S)-2-oxopyrrolidin-3-yl)-4-(trifluoromethoxy)butan-2-yl)-5-azaspiro-[2.4]heptane-6-carboxamide] | 0.05 to 0.2 | – | –
23 | CC[C@@H](O)C(=O)N[C@@H](CC(C)C)C(=O)N[C@@H](C[C@@H]1CCNC1=O)C(=O)COC(F)(F)F [Compound 369, (S)-2-((R)-2-hydroxybutanamido)-4-methyl-N-((S)-3-oxo-1-((S)-2-oxopyrrolidin-3-yl)-4-(trifluoromethoxy)butan-2-yl)pentanamide] | 0.05 to 0.2 | – | –
